Results taken from PubChem BioAssay (NCI).
Values joined by “and” are separate entries in the source; they are usually repeats but may differ in a detail not shown here. Identical values can stand only once.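 Cultured in 96-well plates, cells were exposed to test compound for 48 hours across five concentrations. The concentration for 50% growth inhibition is given as GI50. TGI marks complete inhibition of growth.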 Where a SMILES comes first, the peptide text is derived from it. [ ]: non-standard residue; d: D form. The star is where a group is joined. ξ: configuration not given here. 4Abz = Nc1ccc(C(=O)O)cc1; ξL = CC(C)CC(N)C(=O)O; NHOH = ON*

Key:
Assay in all cases: NCI-60 cell line screen, 48 h
CCRF-CEM leukemia = test system: CCRF-CEM leukemia
LOX IMVI melanoma = test system: LOX IMVI melanoma
MALME-3M melanoma = test system: MALME-3M melanoma
OVCAR-4 ovarian = test system: OVCAR-4 ovarian
NCI/ADR-RES ovarian = test system: NCI/ADR-RES ovarian
PC-3 prostate = test system: PC-3 prostate
SF-539 CNS = test system: SF-539 CNS
K-562 leukemia = test system: K-562 leukemia
T-47D breast = test system: T-47D breast
786-0 renal = test system: 786-0 renal

Row | Structure (SMILES) | GI50 (CCRF-CEM leukemia) [µM] | TGI (CCRF-CEM leukemia) [µM] | GI50 (LOX IMVI melanoma) [µM] | TGI (LOX IMVI melanoma) [µM] | GI50 (MALME-3M melanoma) [µM] | TGI (MALME-3M melanoma) [µM] | GI50 (OVCAR-4 ovarian) [µM] | TGI (OVCAR-4 ovarian) [µM] | GI50 (NCI/ADR-RES ovarian) [µM] | TGI (NCI/ADR-RES ovarian) [µM] | GI50 (PC-3 prostate) [µM] | TGI (PC-3 prostate) | GI50 (SF-539 CNS) [µM] | TGI (SF-539 CNS) [µM] | GI50 (K-562 leukemia) [µM] | TGI (K-562 leukemia) [µM] | GI50 (T-47D breast) [µM] | TGI (T-47D breast) | GI50 (786-0 renal) [µM] | TGI (786-0 renal) [µM]
1 | CN1CCN(c2nc(NCCNc3ccnc4cc(Cl)ccc34)c3ccccc3n2)CC1 | 0.527 | 4.84 | 1.63 | 3.34 | 2 | 3.76 | 2.15 | 6.26 | 16 | 37 | 2.07 | 14.3 µM | 1.77 | 3.34 | 0.721 | 3.82 | 1.94 | 4.79 µM | 2.33 | 10
2 | COc1ccc(-c2ccc(/C=N/n3cnn(CN4CCN(C)CC4)c3=S)o2)c([N+](=O)[O-])c1 | 11.6 | 94.7 | 23.3 | 66.8 | 36.9 | > 100 | > 100 | > 100 | – | – | 39.3 | > 100 µM | 17 | 34.1 | 33.6 | > 100 | 23.1 | 54.3 µM | 19.6 | > 100
3 | N#CC1=C(N)Oc2c(sc3c(F)cccc23)C1c1ccc(Cl)cc1 (configuration not stated) | 2.99 | 12.1 | 3.06 | 11.8 | 6.85 | 26.3 | 4.21 | 19.6 | 2.09 | 6.68 | 2.72 | 12.9 µM | 2.05 | 5.59 | 1.28 | 16.3 | 3.43 | 25.3 µM | 3.15 | 11.1
4 | CC(=N\O)/C(C)=N/O.CC(=N\O)/C(C)=N/O.[Pd] | 2.04 | 6.13 | 1.58 | 3.16 | 1.9 | 4.53 | 4.72 | > 10 | 3.18 | 7.72 | 4.73 | > 10 µM | 2.77 | 6.1 | > 10 | > 10 | 6.19 | > 10 µM | 3.31 | 8.86
5 | CC(C)CC(NC(=O)[C@@H]1CCCN1C(=O)CNC(=O)c1ccc(N)cc1)C(=O)N[C@H](C)C(=O)NO (some centres not stated) (H-[4Abz]GP[ξL][dA]-{NHOH}) | – | – | > 100 | > 100 | > 100 | > 100 | > 100 | > 100 | > 100 | > 100 | > 100 | > 100 µM | > 100 | > 100 | > 100 | > 100 | > 100 | > 100 µM | > 100 | > 100
6 | O=C(CCCCCn1c2ccccc2c2c3c(c4c5ccccc5[nH]c4c21)C(=O)N(O)C3=O)N1CCOCC1 | 1.43 | 4.93 | 1.05 | 2.57 | 2.26 | 6.34 | 3.57 | > 100 | 5.93 | > 100 | 2.28 | 6.22 µM | – | – | 2.11 | 6.23 | 2.61 | 7.89 µM | 1.99 | 4.91
7 | CCCCCCCC(=O)SCC/C=C/[C@@H]1CC(=O)NCc2cccc(n2)CN(Cc2ccc(Cl)cc2)CC(=O)N[C@@H](C(C)C)C(=O)O1 | 4.56 | > 100 | 5.33 | 19.6 | 3.12 | > 100 | 21.7 | > 100 | 11.4 | > 100 | 15.9 | > 100 µM | 16.3 | > 100 | 11 | > 100 | 29.3 | 98.7 µM | 22 | > 100
8 | NS(=O)(=O)OC[C@H]1O[C@@H](n2cnc3c(N[C@H]4CCc5ccccc54)ncnc32)[C@H](O)[C@@H]1O | 0.0419 | > 100 | 0.0209 | 0.0572 | 0.195 | 0.447 | 0.243 | 0.626 | 5.05 | > 100 | 0.337 | 2.14 µM | 0.0351 | 0.117 | 0.0369 | > 100 | 0.156 | 1.41 µM | 0.0799 | 0.373
9 | O=C1C=Cc2cc3ccccc3c3cccc1c23 | 4.35 | 18.3 | 2.87 | 12.2 | – | – | 14.5 | > 100 | 3.33 | 19.2 | 3.47 | 19.1 µM | – | – | 5.59 | > 100 | 21.2 | > 100 µM | 4.29 | > 100
10 | COc1ccc2c(c1)Cc1cc(N=[N+]([O-])c3ccc4c(c3)Cc3cc(OC)ccc3-4)ccc1-2 | – | > 100 | – | 97.7 | – | > 100 | – | > 100 | – | > 100 | – | > 100 µM | – | 28.5 | – | > 100 | – | > 100 µM | – | > 100
11 | Cc1c(Br)cccc1NC(=O)c1sc2nc3c(cc2c1N)CN(Cc1ccccc1)CC3 | 0.182 | > 50 | 0.336 | > 50 | 0.256 | 6.04 | 0.523 | 8.89 | 0.136 | 10.5 | 0.204 | 22.4 µM | 0.158 | 0.858 | – | – | 0.205 | > 50 µM | 0.256 | 7.98
12 | Cc1cc(CC(O)(C(F)(F)F)C(F)(F)F)cc(CC(O)(C(F)(F)F)C(F)(F)F)n1 | – | 12 | – | 5.79 | – | 4.3 | – | 12.6 | – | 5.95 | – | 10.3 µM | – | 8.71 | – | > 100 | – | 7.3 µM | – | 6.66
13 | COC(=O)C1=C(O)C(C(=O)OC)[C@@]2(O)[C@@H](C(=O)OC)C(c3ccc(OC(=O)C(Cc4ccccc4)NC(C)=O)cc3)C[C@@H]1[C@@H]2C(=O)OC (some centres not stated) | 32.9 | > 100 | 18 | 32.2 | – | – | – | – | 60.7 | > 100 | 27.6 | 91 µM | 33.6 | 73.1 | 19.1 | > 100 | 39.2 | > 100 µM | 18.3 | 43.5
14 | COc1cc(C2C3=C(COC3=O)N(CCO)c3cc4c(cc32)OCCO4)cc(OC)c1O (configuration not stated) | 1.84 | > 50 | 2.49 | > 50 | 1.23 | > 50 | 3.78 | > 50 | > 31.8 | > 50 | 2.17 | > 50 µM | 1.22 | > 14.8 | 1.89 | > 50 | 3.38 | > 50 µM | 7.03 | > 50
15 | C=CC[n+]1c(/C=C2\Sc3ccccc3N2C)sc(-c2ccccc2)c1-c1ccccc1 | 0.353 | 11.8 | 0.34 | 1.54 | 0.253 | 0.672 | 0.274 | 11.9 | 7.89 | 61.7 | 0.264 | 1.34 µM | 0.411 | 12.5 | 0.344 | 10 | 0.242 | 0.782 µM | 0.419 | 11.1
16 | CC(C)n1c2c(c3ccccc3c1=O)C(=O)c1ccccc1-2 | – | > 100 | – | > 100 | – | > 100 | – | > 100 | – | > 100 | – | > 100 µM | – | > 100 | – | > 100 | – | > 100 µM | – | > 100
17 | CC(=O)O/N=C1\C=Cc2c(no[n+]2[O-])C1=O | – | 17.6 | – | 36.2 | – | 28.1 | – | 31.5 | – | 68.1 | – | 32.3 µM | – | 31.3 | – | > 100 | – | 57.5 µM | – | 33.5
18 | O=C1/C(=C/c2ccc(F)cc2)CN(Cc2cn(CCNc3ccnc4cc(Cl)ccc34)nn2)C/C1=C\c1ccc(F)cc1 | 1.05 | 4.65 | 0.474 | 1.72 | 1.98 | 3.76 | 1.81 | 8.75 | 2.76 | 11.3 | 1.16 | 2.6 µM | 1.83 | 3.27 | 0.301 | 1.58 | 1.89 | 4.33 µM | 1.66 | 3.04
19 | Nc1ncnc2c1ncn2C1OC(CO)C(O)C1O (configuration not stated) | > 100 | > 284 | 5.73 | > 450 | 51.3 | > 422 | – | > 450 | 5.06 | – | 1.44 | > 100 µM and 12.8 µM | 31.6 | > 450 | – | > 450 | 0.738 | > 100 µM and 13.5 µM | 9.22 | > 100
20 | N=C(N)c1ccc(-c2ccc(-c3ccco3)o2)cc1 | 3.11 | 15.2 | 2.23 | 5.2 | 2.15 | 4.12 | 6.42 | 24.1 | 10.1 | 28.5 | 4.05 | 17 µM | 8.96 | 21.5 | 2.66 | 10.4 | 2.92 | 12.7 µM | 3.93 | 17.1
21 | COc1ccc(CNCCN2C(=O)c3ccc4c5c(ccc(c35)C2=O)C(=O)N(CCNCc2ccc(OC)cc2)C4=O)cc1 | 0.227 | 3.29 | 0.195 | 0.583 | 0.123 | 0.269 | 0.122 | 0.255 | 0.288 | 1.21 | 0.387 | 1.96 µM | 0.274 | 0.872 | 0.217 | 0.96 | 0.306 | 1.42 µM | 1.17 | 2.49
22 | COc1ccc(C2CC(c3cccc(Nc4ccnc5cc(Cl)ccc45)c3)=NN2c2ccccc2)cc1 (configuration not stated) | 0.546 | 37.9 | 0.338 | 11.1 | 10.7 | 42.7 | – | – | 1.51 | 26.4 | 0.453 | 95.3 µM | 1.15 | 3.25 | 0.492 | 32.3 | 0.171 | 20 µM | 3.95 | > 100
23 | OCCOCn1nc(-c2ccccc2)nc1-c1cnccn1 | – | > 100 | – | > 100 | – | – | – | > 100 | – | > 100 | – | > 100 µM | – | > 100 | – | > 100 | – | > 100 µM | – | > 100
24 | COC(=O)c1ccc2c(c1)[n+](=O)c(C(C)=O)c(C(F)(F)F)n2[O-] | 4.62 | > 100 | 1.7 | 3.2 | 1.96 | 3.79 | – | – | 2.48 | 6.41 | 1.64 | 3.63 µM | 1.85 | 3.36 | 2.31 | 7.7 | 2.06 | 4.2 µM | 1.91 | 3.37
25 | CCSc1sc(-c2ccc(C)cc2)nc1[P+](c1ccccc1)(c1ccccc1)c1ccccc1 | 0.377 | 2.14 | 0.267 | 0.913 | 0.288 | 1.06 | 0.275 | 1.05 | – | – | 0.231 | 1.14 µM | 0.394 | 1.53 | 0.195 | 1.44 | 0.0863 | 1.27 µM | 0.375 | 1.57
26 | COC(=O)C1=C(O)C(C(=O)OC)[C@@]2(O)[C@@H](C(=O)OC)C(c3ccccc3C(F)(F)F)C[C@@H]1[C@@H]2C(=O)OC (some centres not stated) | 2.13 | 11.2 | – | – | – | – | – | – | 3.78 | 16.8 | 6.02 | 24.7 µM | 2.14 | 5.71 | 2.15 | 9.52 | 0.737 | 5.98 µM | 4.49 | 16.4
27 | N#CC1=C(N)NC(=S)NC1c1ccc(-c2ccc(-c3nc4ccccc4s3)cc2)o1 (configuration not stated) | – | – | 10.6 | 22.8 | – | – | – | – | > 50 | > 50 | 31.2 | > 50 µM | 15.2 | 31.7 | 9.98 | 22 | 43.2 | > 50 µM | > 50 | > 50
